Assay [1] deals with Mixed population of submersed weed species: Hydrilla verticillata and Egeria densa. In words: Greenhouse test, static exposure of a mixed population of submersed weed species to quinmerac and quinclorac. The settings on record: for Shoot Fresh / Shoot Length: static exposure, 12 weeks after treatment; for Shoot Fresh: control 6.8 g, LSD at 0.05 = 3.1; for Shoot Length: control 37.3 cm, LSD at 0.05 = 17.4. The assay is classed as in vivo. Here is the method:
To begin the experiment, containers were filled and maintained with a volume of 4000 ml of distilled water that was maintained at room temperature (24° C.). To each container, established weed plants (potted in sand mixture) were transferred into the water column. Plants were selected for uniformity and length of shoot growth (approx 15 cm). Plants were allowed to equilibrate in the containers for 24 hrs prior to herbicide treatment. Experimental treatments included an untreated control, quinmerac at 100, 250, and 500 ppb, as well as, quinclorac at 250 ppb of actual acid equivalent of herbicide. Treatments were applied to water columns by the use of a pipette. Amount of herbicide applied was based on the total volume of the containers (4000 ml). After initial herbicide treatment, the water columns were gently stirred to ensure uniform distribution. Treatments were arranged as a completely random design with 3 replications. Each container was considered the experimental unit. Greenhouse conditions were maintained at 24/18° C. (day/night) cycle for the duration of the experiment. Natural day length was supplemented with halogen lighting to provide a 14 hr photoperiod. Water level in the containers was periodically checked and maintained at the 4000 ml level for the duration of the study. After 12 weeks of exposure, weed shoot length and fresh weights were measured to ascertain herbicide effects.

The test system of assay [2] is Hydrilla verticillata. In words: Greenhouse test, static exposure of Hydrilla verticillata to quinclorac in water columns. The assay is classed as in vivo. The settings on record: for Hydrilla Shoot Length: static exposure, 11 weeks after treatment, control 30.4 cm, LSD at 0.05 = 11.5. The procedure:
To begin the experiment, PVC cylinders were filled and maintained with a volume of 4000 ml of dichlorinated water that was maintained at room temperature (24° C.). To each cylinder, an established hydrilla plant (potted in sand mixture) was transferred into the water column. Hydrilla plants were selected for uniformity and length of shoot growth (approx 15 cm). Plants were allowed to equilibrate in the columns for 24 hrs prior to herbicide treatment. Experimental treatments included an untreated control, and quinclorac at 50, 250 and 500 ppb of actual acid equivalent of herbicide. Treatments were applied to water columns by the use of a pipette. Amount of herbicide applied was based on the total volume of the cylinders (4000 ml). After initial herbicide treatment, the water columns were gently stirred to ensure uniform distribution. Treatments were arranged as a completely random design with 3 replications. Each cylinder was considered the experimental unit. Greenhouse conditions were maintained at 24/18° C. (day/night) cycle for the duration of the experiment. Natural day length was supplemented with halogen lighting to provide a 14 hr photoperiod. Water level in the cylinders was periodically checked and maintained at the 4000 ml level for the duration of the study. After 11 weeks of exposure, hydrilla shoot lengths were measured to ascertain herbicide effects.

For the compound `Cc1cnc2c(C(=O)O)c(Cl)ccc2c1` [Quinmerac, 7-chloro-3-methylquinoline-8-carboxylic acid], the Visual symptomology entry in assay [1] (12 weeks of exposure, intensity tended to be rate responsive) was “reduction in plant vigour and auxinic-like twisting of leaf tissue”. For the same compound, the “Shoot Fresh” value came out at 5.1 grams in assay [1] (100 ppb acid equivalent), 0.5 grams in assay [1] (250 ppb acid equivalent) and 0.1 grams in assay [1] (500 ppb acid equivalent). The “Shoot Length” value in assay [1] (100 ppb acid equivalent) was determined as 15.0 cm; in assay [1] (250 ppb acid equivalent), 8.9 cm; in assay [1] (500 ppb acid equivalent) it was 6.5 cm. The “Reduction in both shoot length and fresh weight vs. the control” value in assay [1] (250 ppb, 12 weeks of exposure) is “Significant reduction”; in assay [1] (500 ppb, 12 weeks of exposure), “Significant reduction”.

On to `O=C(O)c1c(Cl)ccc2cc(Cl)cnc12` [Quinclorac, 3,7-dichloroquinoline-8-carboxylic acid], for which the results for the “Hydrilla Shoot Length” value in assay [2] (50 ppb acid equivalent), in assay [2] (250 ppb acid equivalent) and in assay [2] (500 ppb acid equivalent) were 15.0 cm, 8.9 cm and 6.5 cm, respectively. Also, the “Effect on the growth of hydrilla” value in assay [2] (after the 11 week exposure period, 50-500 ppb) is recorded as “significant effect on the growth of hydrilla”. Besides, in assay [2] (after the 11 week exposure period, intensity tended to be rate responsive), the Visual symptomology result was “reduction in plant vigour and auxinic-like twisting of leaf tissue”. Also, the “Shoot Fresh” value in assay [1] (250 ppb acid equivalent) is 1.5 grams. In addition, the “Shoot Length” value in assay [1] (250 ppb acid equivalent) is listed as 15.7 cm. The “Reduction in both shoot length and fresh weight vs. the control” value in assay [1] (250 ppb, 12 weeks of exposure) is “Significant reduction”.

Values taken from patent US9060516B2, “Method for controlling aquatic weeds” (BASF SE, priority 2005, dated 2015).
